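Five compound concentrations were applied to cells in 96-well plates for 48 hours; endpoints were derived by simple linear interpolation of the resulting dose-response curve. GI50 = concentration required for 50% inhibition of growth. TGI denotes the concentration required for complete inhibition of growth.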
What was measured:
Test in all cases: inhibition of tumour cell growth, NCI panel, 48 h
[1] = tested on: HS 578T breast
[2] = tested on: M14 melanoma
[3] = tested on: NCI-H226 lung
[4] = tested on: NCI-H23 lung
[5] = tested on: NCI-H460 lung
[6] = tested on: RPMI-8226 leukemia
[7] = tested on: RXF 393 renal
[8] = tested on: SF-539 CNS
[9] = tested on: SNB-75 CNS
[10] = tested on: SR leukemia

Row | SMILES | GI50 [1] | TGI [1] | GI50 [2] | TGI [2] | GI50 [3] | TGI [3] | GI50 [4] | TGI [4] | GI50 [5] | TGI [5] | GI50 [6] | TGI [6] | GI50 [7] | TGI [7] | GI50 [8] | TGI [8] | GI50 [9] | TGI [9] | TGI [10] | GI50 [10]
1 | C=CCCC(O)c1ccc(C(O)CCCCCCCCCCCC)o1 (stereo not drawn) | 24.2 µM | 55.4 µM | 17.8 µM | 35.3 µM | 21.7 µM | 43.9 µM | 19.3 µM | 34.7 µM | > 100 µM | > 100 µM | 27.1 µM | > 100 µM | 16 µM | 33.2 µM | 19.7 µM | 37.5 µM | 33.3 µM | > 100 µM | – | –
2 | CC1(C)CC[C@]2(C(=O)n3ccnc3)CC[C@]3(C)[C@H](C(=O)C=C4[C@@]5(C)C=C(C#N)C(=O)C(C)(C)[C@@H]5CC[C@]43C)[C@@H]2C1 | – | – | 0.0287 µM | 0.196 µM | < 0.0178 µM | < 0.0499 µM | < 0.0151 µM | 0.0786 µM | < 0.0179 µM | > 100 µM | < 0.01 µM | < 0.01 µM | 0.0114 µM | 0.0536 µM | < 0.0114 µM | < 0.0336 µM | 0.0236 µM | 0.187 µM | – | –
3 | C[C@]12CCC3[C@@H](C[C@H]4OC(=O)[C@@]35CCC(=O)C=C45)C1CCC2=O (stereo partly drawn) | – | – | – | > 100 µM | – | > 100 µM | – | > 100 µM | – | > 100 µM | – | > 100 µM | – | > 100 µM | – | > 100 µM | – | – | > 100 µM | –
4 | CN(C)c1ccc(/C=C/C(=O)c2ccccc2)cc1Br | – | – | – | 27.3 µM | – | – | – | 40 µM | – | > 100 µM | – | 44.4 µM | – | – | – | – | – | 45.7 µM | – | –
5 | COC(=O)CSc1ccccc1 | – | – | – | > 100 µM | – | – | – | > 100 µM | – | > 100 µM | – | > 100 µM | – | > 100 µM | – | > 100 µM | – | > 100 µM | – | –
6 | O=C(/C=C/c1ccccn1)c1ccccc1O | 2.36 µM | 7.27 µM | 2 µM | 4.28 µM | 2.18 µM | 6.23 µM | 2.35 µM | 8.76 µM | 2.28 µM | 5.17 µM | – | – | 1.75 µM | 3.25 µM | 2.05 µM | 4.2 µM | 1.79 µM | 4.24 µM | 4.99 µM | 1.7 µM
7 | COc1ccc(CN2C(=O)C(Cc3cc(OC)c(OC)c(C)c3OC)N(C(=O)OC(C)C)C(=O)/C2=C/c2cc(OC)c(OC)c(C)c2OC)cc1 (stereo not drawn) | – | – | – | > 100 µM | – | > 100 µM | – | > 100 µM | – | > 100 µM | – | > 100 µM | – | > 100 µM | – | > 100 µM | – | > 100 µM | 89.8 µM | –
8 | O=c1cc2n(c(=O)[nH]1)C1OC(C(O)C1O)[C@H]2CCO (stereo partly drawn) | – | – | – | – | – | > 100 µM | – | > 100 µM | – | > 100 µM | – | – | – | > 100 µM | – | > 100 µM | – | – | > 100 µM | –
9 | O=C1OC(c2ccccc2)C2CC3CC4(CCC3CN12)OCCO4 (stereo not drawn) | – | – | – | > 100 µM | – | > 100 µM | – | > 100 µM | – | > 100 µM | – | > 100 µM | – | > 100 µM | – | > 100 µM | – | > 100 µM | > 100 µM | –
10 | COc1ccc(C(=O)C(c2ccc(OC)cc2)C2C(=O)Oc3ccccc32)cc1 (stereo not drawn) | – | – | > 100 µM | > 100 µM | > 100 µM | > 100 µM | > 100 µM | > 100 µM | > 100 µM | > 100 µM | > 100 µM | > 100 µM | > 100 µM | > 100 µM | > 100 µM | > 100 µM | > 100 µM | > 100 µM | > 100 µM | > 100 µM
11 | C[As](C)Sc1ccnc(S[As](C)C)n1 | 1.99 µM | 17.7 µM | 3.94 µM | > 44.9 µM | 31.2 µM | > 100 µM | 6.79 µM | > 32 µM | 19.1 µM | > 58.6 µM | 1.12 µM | 4.61 µM | 3.2 µM | 20.1 µM | 2.77 µM | > 34.8 µM | 12.7 µM | > 100 µM | – | –
12 | Cc1cc(C)nc(NS(=O)(=O)c2ccc(NC(=O)c3cccc4c(Nc5ccc(S(=O)(=O)Nc6nc(C)cc(C)n6)cc5)c5ccccc5nc34)cc2)n1 | – | – | – | 54.9 µM | – | – | – | 57.3 µM | – | > 100 µM | – | 61.8 µM | – | 31.5 µM | – | 32.6 µM | – | 35.5 µM | – | –
13 | O=C(c1ccccc1)c1ccc(Cl)c([N+](=O)[O-])c1 | 17.5 µM | 95.3 µM | 4.37 µM | 17.8 µM | 19.8 µM | 51.7 µM | 16.2 µM | 32.8 µM | 18.5 µM | 39.3 µM | 3.64 µM | 21.9 µM | – | – | 5.1 µM | 19 µM | 4.74 µM | 18.9 µM | 9.66 µM | 3.04 µM
14 | O=C(Nc1ccc(Cl)c(Cl)c1)C(=O)Nn1c(=S)[nH]c2ccccc2c1=O | – | – | – | > 100 µM | – | > 100 µM | – | > 100 µM | – | > 100 µM | – | > 100 µM | – | > 100 µM | – | > 100 µM | – | > 100 µM | > 100 µM | –
15 | O=C1CSC(=S)N1c1ccc(F)cc1F | – | > 100 µM | – | > 100 µM | – | > 100 µM | – | > 100 µM | – | > 100 µM | – | 66.4 µM | – | > 100 µM | – | > 100 µM | – | > 100 µM | – | –
16 | CCOC(=O)NC(=O)c1cn(CCCCCOC(=O)NCCCCCCNC(=O)OCCCCCn2cc(C(=O)NC(=O)OCC)c(=O)[nH]c2=O)c(=O)[nH]c1=O | – | – | – | > 100 µM | – | > 100 µM | – | – | – | > 100 µM | – | > 100 µM | – | > 100 µM | – | > 100 µM | – | > 100 µM | – | –
17 | COC1OCC(OS(=O)(=O)c2ccc(C)cc2)C(OC(=O)c2ccccc2)C1OC(=O)c1ccccc1 (stereo not drawn) | 1.89 µM | 27.4 µM | – | – | > 100 µM | > 100 µM | > 100 µM | > 100 µM | 3.87 µM | > 100 µM | – | – | 4.62 µM | > 100 µM | 5 µM | > 100 µM | 1.78 µM | 4.65 µM | > 100 µM | 3.07 µM

— PubChem BioAssay (NCI)
